This is an account of results in US9499519B2, “Fused pyrimidine compounds and use thereof” (Medivation Technologies, Inc., priority 2012, dated 2016).

The target of one test is PYK2 (Homo sapiens, UniProt Q14289). The experiment in a line: Caliper kinase assay: PYK2 (called FAK2). To be noted: FAK2, 0.01 μM.
The next test deals with NTRK2(TRKB) (Homo sapiens, UniProt Q16620). The experiment in a line: Caliper kinase assay: NTRK2 (TRKB). To be noted: Trk B, 0.01 μM.
The test system of test [1] is Akt phosphorylation induced by IGF-1R. As to the kind of experiment: Western blot analysis of Akt phosphorylation induced by IGF-1 in HT-29 cells. Type of test: cell-based, Human. To be noted: derivatives of Cpd. No. 8b. The method in brief: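 HT-29 cells grown 24 h in DME/F12 with 10% FBS, serum-starved 24 h, then exposed 2 h to compound at 0.1, 1, 10 or 100; controls received DMSO or 10 ng/mL IGF-1. Lysate soluble fractions quantified by BCA before western blotting for phospho-Akt.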
Background: In western blotting, separated proteins are transferred to a membrane and probed.

A further test concerns the target TRKC(NTRK3) (Homo sapiens, UniProt Q16288). The experiment in a line: Caliper kinase assay: TRKC (NTRK3). To be noted: Trk C, 0.01 μM.
Test [2] deals with T1, AXL (Homo sapiens, UniProt P30530).
T1 sequence (P30530 26-894): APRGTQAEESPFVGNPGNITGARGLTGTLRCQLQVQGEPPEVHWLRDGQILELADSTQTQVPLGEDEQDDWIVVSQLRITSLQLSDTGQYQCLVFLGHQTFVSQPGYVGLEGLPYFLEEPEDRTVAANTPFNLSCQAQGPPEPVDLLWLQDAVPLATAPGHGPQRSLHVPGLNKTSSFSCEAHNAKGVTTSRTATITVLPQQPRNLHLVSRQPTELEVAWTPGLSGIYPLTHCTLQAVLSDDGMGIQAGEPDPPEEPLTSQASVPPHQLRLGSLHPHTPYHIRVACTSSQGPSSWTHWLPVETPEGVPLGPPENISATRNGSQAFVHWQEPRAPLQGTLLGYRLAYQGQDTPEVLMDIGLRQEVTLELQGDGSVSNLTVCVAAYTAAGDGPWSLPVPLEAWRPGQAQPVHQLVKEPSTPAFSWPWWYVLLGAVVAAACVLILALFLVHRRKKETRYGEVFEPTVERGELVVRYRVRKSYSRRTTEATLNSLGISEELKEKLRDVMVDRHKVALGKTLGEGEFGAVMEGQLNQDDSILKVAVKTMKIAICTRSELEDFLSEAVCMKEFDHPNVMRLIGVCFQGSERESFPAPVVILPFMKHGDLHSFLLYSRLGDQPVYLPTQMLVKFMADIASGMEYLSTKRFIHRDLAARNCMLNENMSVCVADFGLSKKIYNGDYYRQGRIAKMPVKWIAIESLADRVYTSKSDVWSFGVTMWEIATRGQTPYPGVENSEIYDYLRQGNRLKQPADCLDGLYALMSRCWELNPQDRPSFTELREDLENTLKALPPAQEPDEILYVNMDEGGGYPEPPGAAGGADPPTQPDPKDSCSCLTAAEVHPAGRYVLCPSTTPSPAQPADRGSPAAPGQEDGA
As to the kind of experiment: Caliper kinase assay: AXL. To be noted: 0.01 μM.
Method: (§4) The compound was tested at concentrations of 1.0×10^−8 and 1.0×10^−9 M in the RapidKinase192™ panel in duplicate. […] The screening was performed using the Caliper EZReader2, a 4-sipper LabChip, and ProfilerPro Kinase Selectivity Assay Kits 1 and 2. The assay measures the conversion of a fluorescent peptide substrate to a phosphorylated product. Briefly, the reaction mixture was introduced through a capillary sipper onto the microfluidic chip, where the substrate and product were electrophoretically separated and detected by laser-induced fluorescence. The time-dependent fluorescence signal indicates the extent of the reaction.
(§5) The kinases tested were AurA, AurB, AurC, AXL, FAK2, IGF1R, InsR, Mer, MET, Trk B and Trk C.
(§6) The assays were conducted using the Caliper LabChip 3000 and a 12-sipper LabChip as described above.

For a further test, the target named is c-Met (Homo sapiens, UniProt P08581). The experiment in a line: HotSpot kinase assay: c-Met. Type of test: biochemical. To be noted: 100 nM compound, read-out: % Enzyme Inhibition @ 100 nM c-MET. Here is the method: (§1) Kinase assays were performed using additional compounds against a panel of 4 kinases: AXL; c-Met; c-Mer; and Trk C. Each compound was tested at a concentration of […] in single duplicate mode against the 4 kinases. Compounds were prepared as 10 mM stock solutions in DMSO prior to use in the assay. […] IC50 values and curve fits were obtained using Prism (GraphPad Software).
Chain of c-Met (P08581 25-1390): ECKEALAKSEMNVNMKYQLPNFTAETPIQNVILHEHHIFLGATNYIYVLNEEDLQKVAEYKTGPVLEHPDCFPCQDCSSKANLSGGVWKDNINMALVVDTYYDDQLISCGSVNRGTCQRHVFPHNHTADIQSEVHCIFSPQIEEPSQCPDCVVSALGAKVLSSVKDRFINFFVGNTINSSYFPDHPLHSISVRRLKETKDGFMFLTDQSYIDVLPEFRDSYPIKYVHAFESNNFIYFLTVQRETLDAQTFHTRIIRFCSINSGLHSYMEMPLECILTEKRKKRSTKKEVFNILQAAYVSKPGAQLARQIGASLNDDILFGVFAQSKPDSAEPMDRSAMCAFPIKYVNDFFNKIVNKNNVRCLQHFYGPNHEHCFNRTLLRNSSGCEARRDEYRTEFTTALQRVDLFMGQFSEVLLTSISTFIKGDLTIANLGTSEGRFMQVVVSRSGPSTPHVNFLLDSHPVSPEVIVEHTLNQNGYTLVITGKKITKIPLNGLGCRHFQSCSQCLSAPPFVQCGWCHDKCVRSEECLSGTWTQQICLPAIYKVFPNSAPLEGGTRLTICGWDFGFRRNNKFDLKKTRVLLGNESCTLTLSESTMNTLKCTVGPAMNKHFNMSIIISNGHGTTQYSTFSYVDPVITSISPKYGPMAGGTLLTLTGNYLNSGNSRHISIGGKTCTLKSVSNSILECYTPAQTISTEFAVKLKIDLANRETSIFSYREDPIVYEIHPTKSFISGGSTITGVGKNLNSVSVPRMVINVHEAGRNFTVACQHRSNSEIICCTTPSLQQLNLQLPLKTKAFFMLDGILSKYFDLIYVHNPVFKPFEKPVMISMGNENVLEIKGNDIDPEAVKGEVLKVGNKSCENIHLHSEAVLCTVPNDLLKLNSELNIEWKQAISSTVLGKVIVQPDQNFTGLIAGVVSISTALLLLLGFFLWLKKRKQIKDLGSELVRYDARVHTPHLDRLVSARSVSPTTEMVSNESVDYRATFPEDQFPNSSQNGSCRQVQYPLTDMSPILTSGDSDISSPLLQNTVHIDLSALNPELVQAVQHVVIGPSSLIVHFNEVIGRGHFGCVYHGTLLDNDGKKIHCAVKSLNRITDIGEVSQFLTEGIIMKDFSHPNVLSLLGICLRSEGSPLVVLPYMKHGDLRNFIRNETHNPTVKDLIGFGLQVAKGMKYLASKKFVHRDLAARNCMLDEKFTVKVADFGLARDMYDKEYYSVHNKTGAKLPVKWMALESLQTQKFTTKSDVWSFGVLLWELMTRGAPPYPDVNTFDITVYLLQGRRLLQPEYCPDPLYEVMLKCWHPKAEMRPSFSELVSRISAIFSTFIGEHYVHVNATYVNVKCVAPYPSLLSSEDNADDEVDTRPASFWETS
(§2) The screening was performed using the “HotSpot” assay platform. The assay measures the conversion of a peptide substrate to ^33P-labelled phosphorylated product. Briefly, specific kinase/substrate pairs along with required cofactors were prepared in reaction buffer. Specifically, the substrate was prepared in reaction buffer (20 mM Hepes, pH 7.5; 10 mM MgCl2; 1 mM EGTA; 0.02% Brij35; 0.02 mg/mL BSA; 0.1 mM Na3VO4; 2 mM DTT; 1% DMSO), followed by delivery of any required cofactor to the resulting substrate solution. The corresponding kinase was delivered into the substrate solution and the reaction mixture was mixed gently. Compound was delivered into the reaction mixture, followed 15-20 minutes later by addition of a mixture of ATP (Sigma, St. Louis Mo.) and ^33P ATP (specific activity 0.01 μCi/μL final; Perkin Elmer, Waltham, Mass.) to a final concentration of 10 μM-30 μM to initiate the reaction. […] The percent of enzyme inhibition was calculated based on the percent of remaining kinase activity.

A further test deals with Trk C (Homo sapiens, UniProt Q16288). As to the kind of experiment: HotSpot kinase assay: Trk C. Type of test: biochemical. To be noted: 100 nM compound; HotSpot; read-out: % Enzyme Inhibition @ 100 nM Trk C. Here is the method: Each compound was tested at a concentration of 0.1 μM in single duplicate mode against the 3 kinases. Compounds were prepared as 10 mM stock solutions in DMSO prior to use in the assay. […] IC50 values and curve fits were obtained using Prism (GraphPad Software).
Chain of Trk C (Q16288 32-839): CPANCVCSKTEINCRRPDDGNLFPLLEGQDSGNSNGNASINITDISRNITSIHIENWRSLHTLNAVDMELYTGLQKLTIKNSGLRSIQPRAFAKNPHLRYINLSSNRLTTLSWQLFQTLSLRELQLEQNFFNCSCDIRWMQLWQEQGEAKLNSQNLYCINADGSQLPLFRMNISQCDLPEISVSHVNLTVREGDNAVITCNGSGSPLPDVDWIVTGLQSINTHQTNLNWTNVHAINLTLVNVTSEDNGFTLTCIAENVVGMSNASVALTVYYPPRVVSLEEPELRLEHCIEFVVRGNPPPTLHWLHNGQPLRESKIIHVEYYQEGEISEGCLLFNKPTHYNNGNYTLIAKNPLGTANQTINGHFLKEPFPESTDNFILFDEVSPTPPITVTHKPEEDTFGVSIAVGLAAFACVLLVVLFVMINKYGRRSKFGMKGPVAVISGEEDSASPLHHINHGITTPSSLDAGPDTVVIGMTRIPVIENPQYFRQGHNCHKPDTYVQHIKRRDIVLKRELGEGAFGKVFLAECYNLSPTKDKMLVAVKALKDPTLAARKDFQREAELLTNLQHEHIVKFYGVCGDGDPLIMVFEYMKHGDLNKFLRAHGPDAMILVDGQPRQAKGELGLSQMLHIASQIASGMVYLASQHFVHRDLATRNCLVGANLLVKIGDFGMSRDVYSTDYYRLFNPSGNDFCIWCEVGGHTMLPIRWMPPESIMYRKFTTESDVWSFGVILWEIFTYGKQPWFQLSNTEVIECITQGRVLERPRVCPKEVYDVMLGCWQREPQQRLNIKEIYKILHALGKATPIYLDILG
as §2, §1

The target in a further test is T2, c-Mer (Homo sapiens, UniProt Q12866).
T2 sequence (Q12866 21-999): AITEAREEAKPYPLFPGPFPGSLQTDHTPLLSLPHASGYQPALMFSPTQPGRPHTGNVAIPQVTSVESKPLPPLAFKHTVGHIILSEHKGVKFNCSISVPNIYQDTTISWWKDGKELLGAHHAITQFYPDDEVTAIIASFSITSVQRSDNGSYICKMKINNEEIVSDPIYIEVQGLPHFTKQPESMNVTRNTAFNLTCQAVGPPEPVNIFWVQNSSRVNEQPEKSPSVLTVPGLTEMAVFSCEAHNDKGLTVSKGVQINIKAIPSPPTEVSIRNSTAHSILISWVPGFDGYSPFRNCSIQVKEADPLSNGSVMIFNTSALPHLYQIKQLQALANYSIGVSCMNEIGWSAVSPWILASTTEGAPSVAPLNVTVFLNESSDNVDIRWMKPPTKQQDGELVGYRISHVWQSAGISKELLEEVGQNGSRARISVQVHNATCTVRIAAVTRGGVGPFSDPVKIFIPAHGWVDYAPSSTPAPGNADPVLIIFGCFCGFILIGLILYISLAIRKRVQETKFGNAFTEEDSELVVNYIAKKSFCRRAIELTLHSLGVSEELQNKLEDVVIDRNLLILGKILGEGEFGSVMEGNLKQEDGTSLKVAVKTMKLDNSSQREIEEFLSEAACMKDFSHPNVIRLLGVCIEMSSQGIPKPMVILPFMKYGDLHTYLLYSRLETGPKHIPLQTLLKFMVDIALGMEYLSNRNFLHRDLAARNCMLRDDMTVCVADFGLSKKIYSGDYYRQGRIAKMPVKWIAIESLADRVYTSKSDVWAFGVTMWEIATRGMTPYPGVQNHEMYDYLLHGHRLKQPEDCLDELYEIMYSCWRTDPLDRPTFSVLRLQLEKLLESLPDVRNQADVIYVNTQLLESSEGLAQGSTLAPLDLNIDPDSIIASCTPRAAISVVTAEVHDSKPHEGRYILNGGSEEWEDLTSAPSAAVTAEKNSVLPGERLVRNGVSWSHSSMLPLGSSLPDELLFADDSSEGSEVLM
The experiment in a line: HotSpot kinase assay: c-Mer. The class given is biochemical. To be noted: 100 nM compound, read-out: % Enzyme Inhibition @ 100 nM c-MER. Here is the method:
as §1, §2

Test [3] addresses T1, AXL. The experiment in a line: HotSpot kinase assay: AXL. The class given is biochemical. To be noted: 100 nM compound, read-out: % Enzyme Inhibition @ 100 nM AXL. As to the method: as §1, §2
The target in a further test is T3, IR (Homo sapiens, UniProt P06213).
T3 construct: purchased Millipore 14-803
T3 sequence (P06213 28-1382): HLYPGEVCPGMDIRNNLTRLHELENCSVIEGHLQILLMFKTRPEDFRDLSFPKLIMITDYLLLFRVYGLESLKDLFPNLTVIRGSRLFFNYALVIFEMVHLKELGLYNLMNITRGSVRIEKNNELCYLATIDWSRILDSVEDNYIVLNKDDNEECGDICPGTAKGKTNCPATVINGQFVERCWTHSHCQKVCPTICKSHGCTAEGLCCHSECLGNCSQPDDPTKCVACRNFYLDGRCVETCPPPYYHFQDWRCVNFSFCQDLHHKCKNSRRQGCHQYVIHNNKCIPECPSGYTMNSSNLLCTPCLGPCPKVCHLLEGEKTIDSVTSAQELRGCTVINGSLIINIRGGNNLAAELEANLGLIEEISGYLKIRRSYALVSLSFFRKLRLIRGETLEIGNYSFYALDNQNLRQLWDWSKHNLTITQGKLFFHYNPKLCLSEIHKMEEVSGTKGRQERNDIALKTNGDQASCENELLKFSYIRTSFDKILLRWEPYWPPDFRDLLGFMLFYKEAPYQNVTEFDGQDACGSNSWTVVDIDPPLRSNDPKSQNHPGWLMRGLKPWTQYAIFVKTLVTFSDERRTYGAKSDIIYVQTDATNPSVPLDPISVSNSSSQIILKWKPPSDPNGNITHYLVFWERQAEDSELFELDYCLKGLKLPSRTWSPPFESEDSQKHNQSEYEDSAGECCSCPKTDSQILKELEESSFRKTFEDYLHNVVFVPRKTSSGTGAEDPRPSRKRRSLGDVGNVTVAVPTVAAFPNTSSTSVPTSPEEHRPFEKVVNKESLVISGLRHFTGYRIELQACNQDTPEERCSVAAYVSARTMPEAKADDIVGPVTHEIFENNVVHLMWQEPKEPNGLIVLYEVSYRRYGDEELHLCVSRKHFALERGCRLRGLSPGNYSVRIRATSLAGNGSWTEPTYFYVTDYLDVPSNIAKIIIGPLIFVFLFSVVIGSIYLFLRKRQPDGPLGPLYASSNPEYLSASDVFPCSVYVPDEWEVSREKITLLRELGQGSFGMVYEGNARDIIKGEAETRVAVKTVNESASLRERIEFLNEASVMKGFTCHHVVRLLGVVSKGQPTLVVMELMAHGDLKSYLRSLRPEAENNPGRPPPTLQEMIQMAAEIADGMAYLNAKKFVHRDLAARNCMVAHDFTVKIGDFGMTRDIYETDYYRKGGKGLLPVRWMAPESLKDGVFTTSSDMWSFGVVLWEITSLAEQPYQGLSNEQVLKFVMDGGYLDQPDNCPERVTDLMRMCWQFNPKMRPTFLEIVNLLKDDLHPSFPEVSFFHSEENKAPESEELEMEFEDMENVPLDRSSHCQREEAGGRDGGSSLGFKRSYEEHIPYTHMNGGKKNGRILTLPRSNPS
The experiment in a line: In vitro IR enzymatic assay (ADP-Glo kinase assay). The class given is biochemical. To be noted: activated IR. Here is the method: (§3) IC50 values of the compounds of the invention against IGF-1R and IR were measured in vitro using an ADP-Glo kinase assay Kit (Promega). […] Kinase reactions in both assays were conducted at 30° C. for 20 min with increasing concentrations of compounds of the invention.
Additional compounds of the invention were screened against activated IR.

Another test deals with T4, IGF-1R (Homo sapiens, UniProt P08069).
T4 construct: purchased Millipore 14-802
The experiment in a line: In vitro IGF-1R enzymatic assay (ADP-Glo kinase assay). The class given is biochemical. To be noted: activated IGF-1R. Here is the method:
as §3
Additional compounds of the invention were screened against activated IGF-1R.
(In general: ADP-Glo turns the ADP formed in a reaction into a luminescent signal.)

Chain of PYK2 (Q14289 whole entry): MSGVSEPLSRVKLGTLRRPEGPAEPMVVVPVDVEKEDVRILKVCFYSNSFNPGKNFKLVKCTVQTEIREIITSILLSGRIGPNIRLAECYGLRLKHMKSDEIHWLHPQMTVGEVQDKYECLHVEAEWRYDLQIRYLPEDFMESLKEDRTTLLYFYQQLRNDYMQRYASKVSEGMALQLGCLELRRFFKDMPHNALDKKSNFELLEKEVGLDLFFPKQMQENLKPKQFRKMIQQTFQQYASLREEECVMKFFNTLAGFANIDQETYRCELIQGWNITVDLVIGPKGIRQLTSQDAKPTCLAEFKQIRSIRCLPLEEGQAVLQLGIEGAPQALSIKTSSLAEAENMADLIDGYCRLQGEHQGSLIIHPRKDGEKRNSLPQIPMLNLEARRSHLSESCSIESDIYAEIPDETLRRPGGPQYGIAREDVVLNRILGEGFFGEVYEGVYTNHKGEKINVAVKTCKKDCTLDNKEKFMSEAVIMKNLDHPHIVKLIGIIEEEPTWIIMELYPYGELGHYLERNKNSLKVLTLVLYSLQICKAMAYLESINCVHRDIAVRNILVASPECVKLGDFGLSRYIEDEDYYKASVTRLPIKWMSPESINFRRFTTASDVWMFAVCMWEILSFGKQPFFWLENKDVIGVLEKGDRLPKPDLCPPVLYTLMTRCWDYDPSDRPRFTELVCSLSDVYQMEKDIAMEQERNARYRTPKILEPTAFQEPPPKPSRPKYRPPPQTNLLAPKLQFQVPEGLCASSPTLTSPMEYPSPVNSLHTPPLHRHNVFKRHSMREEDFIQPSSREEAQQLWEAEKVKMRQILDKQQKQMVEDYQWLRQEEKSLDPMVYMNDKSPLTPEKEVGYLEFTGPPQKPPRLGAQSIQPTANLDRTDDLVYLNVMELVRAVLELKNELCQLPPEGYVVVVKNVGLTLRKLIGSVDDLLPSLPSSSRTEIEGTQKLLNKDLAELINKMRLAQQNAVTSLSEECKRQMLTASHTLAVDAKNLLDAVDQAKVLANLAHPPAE
Chain of TRKC(NTRK3) (Q16288 32-839): as the sequence (Q16288 32-839) above
Method for NTRK2(TRKB): as §4, §5, §6
Method for PYK2: as §4, §5, §6
Method for TRKC(NTRK3): as §4, §5, §6

For `O=C(Nc1ccc(F)nc1)C1CC(O)CN1c1nc2c(c(Nc3cc(C4CC4)[nH]n3)n1)CCC2` (racemic) [Compound 10d, 1-(4-(5-cyclopropyl-1H-pyrazol-3-ylamino)-6,7-dihydro-5H-cyclopenta[d]pyrimidin-2-yl)-N-(6-fluoropyridin-3-yl)-4-hydroxypyrrolidine-2-carboxamide], the inhibition of kinase entry against PYK2, on NTRK2(TRKB), against TRKC(NTRK3) and at AXL [2] was “strongly inhibited” in each case. The “pAKT relative to 0.1 nM compound” value in test [1] (1 nM) is recorded as 0.84; in test [1] (10 nM), 0.23; in test [1] (100 nM), 0.01.

For orientation: inhibition means the percentage by which the read-out fell short of the control. As to `O=C(Nc1ccc(F)nc1)C1CCCN1c1nc2c(c(Nc3ccccn3)n1)CCC2` (stereo not shown) [Compound 102a, N-(6-fluoropyridin-3-yl)-1-(4-(pyridin-2-ylamino)-6,7-dihydro-5H-cyclopenta[d]pyrimidin-2-yl)pyrrolidine-2-carboxamide], the inhibition at 0.1 µM at c-Met, on Trk C, at c-Mer and on AXL [3] was less than 39% in each case.

Take `O=C(Nc1ccc(F)nc1)C1CCCN1c1nc2c(c(Nc3ccc(=O)[nH]n3)n1)CCC2` (stereo not shown) [Compound 101b, N-(6-fluoropyridin-3-yl)-1-(4-(6-oxo-1,6-dihydropyridazin-3-ylamino)-6,7-dihydro-5H-cyclopenta[d]pyrimidin-2-yl)pyrrolidine-2-carboxamide]: the inhibition at 0.1 µM at c-Met, on Trk C, at c-Mer and on AXL [3] was less than 39% in each case.

What is called IC50 is the midpoint of a concentration-inhibition curve. Take `CC(C)c1cc(Nc2nc(N3CCCC3C(=O)N3CCCCC3)nc3c2CCC3)n[nH]1` (stereo not shown) [Compound 73b, (1-(4-(5-isopropyl-1H-pyrazol-3-ylamino)-6,7-dihydro-5H-cyclopenta[d]pyrimidin-2-yl)pyrrolidin2--yl)(piperidin-1-yl)methanone]: the inhibition at 0.1 µM at c-Met was less than 39%; at Trk C, greater than 60%; at c-Mer it was less than 39%; on AXL [3], less than 39%. The values for the IC50 on IR and against IGF-1R were 1300 nM and 1400 nM, respectively.

Take `O=C(Nc1nccs1)C1CCCN1c1nc2c(c(Nc3ncccn3)n1)CCC2` (stereo not shown) [Compound 105a, 1-(4-(pyrimidin-2-ylamino)-6,7-dihydro-5H-cyclopenta[d]pyrimidin-2-yl)-N-(thiazol-2-yl)pyrrolidine-2-carboxamide]: the inhibition at 0.1 µM on c-Met, at Trk C, at c-Mer and on AXL [3] was less than 39% each time.
